Target: T1, Dopamine beta hydroxylase (Homo sapiens, UniProt P09172)
T1 construct: 125 μl of plasma; tissue Instituto Português do Sangue Transplantação; host or cells: human plasma from healthy donors
T1 sequence (P09172 40-617 limits assumed): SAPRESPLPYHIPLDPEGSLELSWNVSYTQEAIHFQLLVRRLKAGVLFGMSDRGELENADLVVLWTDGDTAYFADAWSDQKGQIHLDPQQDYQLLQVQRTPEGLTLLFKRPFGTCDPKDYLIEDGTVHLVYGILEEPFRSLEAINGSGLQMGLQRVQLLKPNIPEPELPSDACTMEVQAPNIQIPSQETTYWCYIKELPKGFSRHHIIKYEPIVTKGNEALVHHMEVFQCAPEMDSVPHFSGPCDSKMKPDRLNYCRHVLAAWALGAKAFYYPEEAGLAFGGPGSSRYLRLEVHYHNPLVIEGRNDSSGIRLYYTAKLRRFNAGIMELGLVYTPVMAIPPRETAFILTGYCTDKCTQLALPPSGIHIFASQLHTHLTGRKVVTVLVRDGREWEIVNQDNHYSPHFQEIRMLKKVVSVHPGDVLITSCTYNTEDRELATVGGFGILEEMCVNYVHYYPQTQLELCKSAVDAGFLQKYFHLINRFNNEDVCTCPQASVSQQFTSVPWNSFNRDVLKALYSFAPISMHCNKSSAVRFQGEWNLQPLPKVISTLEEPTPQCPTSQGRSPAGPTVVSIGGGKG
Experiment: Dopamine beta hydroxylase activity in human plasma
Type: biochemical
Settings: for Plasma (0.01 μM), activity in % of control: inhibitor 0.01 μM; for Plasma (0.1 μM), activity in % of control: inhibitor 0.1 μM; for Plasma (1 μM), activity in % of control: inhibitor 1 μM
Protocol: Furthermore, the ability of a compound to inhibit DβH activity may be assessed in human plasma using the following assay. […]. Dopamine beta hydroxylase activity in human plasma was measured by the method of Nagatsu and Udenfriend (Nagatsu, T. and Udenfriend, S. “Photometric assay of dopamine-μ-hydroxylase activity in human blood.” Clin. Chem. 18(9) 980-983, 1972) with minor modifications. Catalase, N-ethylmaleimide, tyramine, disodium fumarate, pargyline, sodium acetate, ascorbic acid, copper sulfate and octopamine were obtained from Sigma Chemical Co., St. Louis, Mo. 63178. Human plasma samples were obtained from healthy donors (Instituto Português do Sangue Transplantação, Centro Sangue Transplantação, Porto, Portugal). From date of collection, plasma was stored at −80° C. until use. Test compounds were initially prepared in dimethyl sulfoxide at a concentration of 10 mM and diluted in dimethyl sulfoxide to the required concentrations. Test compounds were further diluted in ultrapure water to a concentration 20-fold to that of the final concentration to be tested. Final concentrations of test compounds were 10, 100 and 1000 nM. The various reagents used to make up the incubation buffer were premixed and consisted of the following components: sodium acetate buffer (1 M, pH 5.0, 18 ml), sodium fumarate (0.2 M, 4.5 ml), ascorbic acid (0.2 M, 4.5 ml, freshly prepared), pargyline (20 mM, freshly prepared, 4.5 ml), N-ethylmaleimide (0.2 M, 4.5 ml), catalase (10 000 U/ml, 9 ml), copper sulfate (20 μM, 4.5 ml) and 4.5 ultrapure water. The standard incubation mixture (total volume, 950 μl) contained: 50 μL of compound or vehicle (dimethyl sulfoxide 2%); 700 μL of incubation buffer; 125 μl of plasma (or saline for blank reaction or standard curve); 75 μl of saline. The reaction mixture was placed in water bath, shaking at 37° C. and pre-incubated for 10 minutes. Tyramine (0.5 M) was added and incubation proceeded for 45 minutes. The reaction contents were exposed to air. A sample of enzyme preparation (with 125 μl of plasma) that had been added perchloric acid 2 M at the end of the pre-incubation period was used as blank. A blank for each of the tested compounds was used. For octopamine standard curve, perchloric acid 2 M was replaced by increasing concentrations of octopamine prepared in perchloric acid 2 M (0.5, 1, 2.5, 5, 7.5, 10, 15, 20 μg/ml, final concentration). The incubation was stopped by adding 200 μl of 2 M molar perchloric acid, and the mixture was centrifuged at 9000 g for 5 min. The supernatant fluid (800 μL) was transferred to a column (SPE cartridge ISOLUTE SCX-3, 100 mg) and centrifuged at 150 g for 2 min. The column was washed two more times with 0.5 ml of ultrapure water by centrifuging at 150 g for 2 min. The adsorbed octopamine was eluted twice with 0.3 ml of 4 M ammonium hydroxide by centrifuging at 150 g for 2 min. Octopamine in the eluate was then converted to p-hydroxybenzaldehyde by adding 200 μl of sodium periodate (2%) and incubating for 6 min. Excess periodate was than reduced by adding 200 μl of sodium metabisulfite (10%). Absorbance was measured at […] in a 96-well plate by use of a SpectraMAX plus 384 (Molecular Devices) with software SOFTmax® PRO Software 5.3 spectrophotometer. Absorbance was linear with octopamine concentration from 0.5 to 20 μg/ml. Dopamine beta hydroxylase activity is determined as nmol of octopamine formed/ml of plasma/hour and effect of compounds is presented as % control.
Results are reported in the table below as activity in % of control at the inhibitor concentration tested.

Structure (SMILES) | Plasma (0.01 μM), activity in % of control | Plasma (0.1 μM), activity in % of control | Plasma (1 μM), activity in % of control
O=C(Cc1[nH]c(=S)n2c1C[C@H](c1c(F)c(F)cc(F)c1F)C2)N[C@H]1CC[C@H](O)CC1 [Example 28, N-((1r,4R)-4-hydroxycyclohexyl)-2-((R)-6-(2,3,5,6-tetrafluorophenyl)-3-thioxo-2,5,6,7-tetrahydro-3H-pyrrolo[1,2-c]imidazol-1-yl)acetamide] | 78.1 % of control | 33.8 % of control | –
O=C(Cc1[nH]c(=S)n2c1C[C@H](c1c(F)c(F)cc(F)c1F)C2)NC1CCCCC1O (stereo partly drawn) [Example 29, N-(2-hydroxycyclohexyl)-2-((R)-6-(2,3,5,6-tetrafluorophenyl)-3-thioxo-2,5,6,7-tetrahydro-3H-pyrrolo[1,2-c]imidazol-1-yl)acetamide] | 72.5 % of control | 29.1 % of control | –
CN(C)C(=O)Cc1[nH]c(=S)n2c1C[C@H](c1c(F)c(F)cc(F)c1F)C2 [Example 30, (R)—N,N-dimethyl-2-(6-(2,3,5,6-tetrafluorophenyl)-3-thioxo-2,5,6,7-tetrahydro-3H-pyrrolo[1,2-c]imidazol-1-yl)acetamide] | 92.0 % of control | 73.2 % of control | –
N[C@@H](CNC(=O)Cc1[nH]c(=S)n2c1C[C@H](c1c(F)c(F)cc(F)c1F)C2)C(=O)O [Example 31, (S)-2-amino-3-(2-((R)-6-(2,3,5,6-tetrafluorophenyl)-3-thioxo-3,5,6,7-tetrahydro-2H-pyrrolo[1,2-c]imidazol-1-yl)acetamido)propanoic acid] | – | 67.7 % of control | 16.7 % of control
O=C(Cc1[nH]c(=S)n2c1C[C@H](c1c(F)c(F)cc(F)c1F)C2)NC1CCCC1 [Example 32] | – | 46.2 % of control | 9.7 % of control
O=C(Cc1[nH]c(=S)n2c1C[C@@H](c1c(F)ccc(Br)c1F)C2)NC1CCCC1=O (stereo partly drawn) [Example 34, 2-((S)-6-(3-bromo-2,6-difluorophenyl)-3-thioxo-3,5,6,7-tetrahydro-2H-pyrrolo[1,2-c]imidazol-1-yl)-N-(2-oxocyclopentyl)acetamide] | – | 10.4 % of control | 0 % of control
CCOC(=O)Cc1[nH]c(=S)n2c1C[C@@H](c1c(F)ccc(Br)c1F)C2 [Example 59, ethyl (S)-2-(6-(3-bromo-2,6-difluorophenyl)-3-thioxo-2,5,6,7-tetrahydro-3H-pyrrolo[1,2-c]imidazol-1-yl)acetate] | – | 20.8 % of control | 4.1 % of control
CCOC(=O)Cc1[nH]c(=S)n2c1C[C@H](c1c(F)ccc(Br)c1F)C2 [Example 60, Ethyl (R)-2-(6-(3-bromo-2,6-difluorophenyl)-3-thioxo-2,5,6,7-tetrahydro-3H-pyrrolo[1,2-c]imidazol-1-yl)acetate] | – | 68.9 % of control | 14.0 % of control
CCOC(=O)Cc1[nH]c(=S)n2c1C[C@H](c1cc(F)ccc1F)C2 [Example 61, Ethyl (R)-2-(6-(2,5-difluorophenyl)-3-thioxo-2,5,6,7-tetrahydro-3H-pyrrolo[1,2-c]imidazol-1-yl)acetate] | – | 99.1 % of control | 47.9 % of control
CCOC(=O)Cc1[nH]c(=S)n2c1C[C@@H](c1cc(Br)ccc1F)C2 [Example 62, Ethyl (S)-2-(6-(5-bromo-2-fluorophenyl)-3-thioxo-2,5,6,7-tetrahydro-3H-pyrrolo[1,2-c]imidazol-1-yl)acetate] | – | 66.4 % of control | 10.9 % of control
CCOC(=O)Cc1[nH]c(=S)n2c1C[C@H](c1c(F)c(F)cc(F)c1F)C2 [Example 63, Ethyl (R)-2-(6-(2,3,5,6-tetrafluorophenyl)-3-thioxo-2,5,6,7-tetrahydro-3H-pyrrolo[1,2-c]imidazol-1-yl)acetate] | – | 58.3 % of control | 11.9 % of control

— US11434242B2, “Dopamine-b-hydroxylase inhibitors” (BIAL-PORTELA & Cª, S.A., priority 2017, dated 2022)
